In ChEMBL document CHEMBL1275522, “Antimicrobial studies with the Pseudomonas aeruginosa two-allele library require caution” (2008):
Values after ≈ are worked out from the molar mass of the structure shown.

Assays:
Format in all cases: functional
[1] = system: Pseudomonas aeruginosa; test: Antimicrobial against Pseudomonas aeruginosa PAO1 by Etest method
[2] = system: Pseudomonas aeruginosa; test: Antimicrobial against Pseudomonas aeruginosa 33410 harboring phoU allele by Etest method
[3] = system: Pseudomonas aeruginosa; test: Antimicrobial against Pseudomonas aeruginosa 30848 harboring phoU allele by Etest method
[4] = system: Pseudomonas aeruginosa; test: Antimicrobial against Pseudomonas aeruginosa 32455 harboring phzS allele by Etest method
[5] = system: Pseudomonas aeruginosa; test: Antimicrobial against Pseudomonas aeruginosa 3208 harboring phzM allele by Etest method
[6] = system: Pseudomonas aeruginosa; test: Antimicrobial against Pseudomonas aeruginosa 3434 by Etest method
[7] = system: Pseudomonas aeruginosa; test: Antimicrobial against Pseudomonas aeruginosa 3894 by Etest method
[8] = system: Pseudomonas aeruginosa; test: Antimicrobial against Pseudomonas aeruginosa 1494 harboring phnA allele by Etest method
[9] = system: Pseudomonas aeruginosa; test: Antimicrobial against Pseudomonas aeruginosa 40198 harboring nirJ allele by Etest method
[10] = system: Pseudomonas aeruginosa; test: Antimicrobial against Pseudomonas aeruginosa 8564 harboring pyrX allele by Etest method
[11] = system: Pseudomonas aeruginosa; test: Antimicrobial against Pseudomonas aeruginosa 9256 harboring ybhO allele by Etest method
[12] = system: Pseudomonas aeruginosa; test: Antimicrobial against Pseudomonas aeruginosa 8666 by Etest method
[13] = system: Pseudomonas aeruginosa; test: Antimicrobial against Pseudomonas aeruginosa 3465 harboring tsaA allele by Etest method
[14] = system: Pseudomonas aeruginosa; test: Antimicrobial against Pseudomonas aeruginosa 312 harboring PBPP allele by Etest method
[15] = system: Pseudomonas aeruginosa; test: Antimicrobial against Pseudomonas aeruginosa 46396 harboring katA allele by Etest method
[16] = system: Pseudomonas aeruginosa; test: Antimicrobial against Pseudomonas aeruginosa 30848 harboring phoU allele by broth dilution method
[17] = system: Pseudomonas aeruginosa; test: Antimicrobial against Pseudomonas aeruginosa 32455 harboring phzS allele by broth dilution method
[18] = system: Pseudomonas aeruginosa; test: Antimicrobial against Pseudomonas aeruginosa 3208 harboring phzM allele by broth dilution method
[19] = system: Pseudomonas aeruginosa; test: Antimicrobial against Pseudomonas aeruginosa 3434 by broth dilution method
[20] = system: Pseudomonas aeruginosa; test: Antimicrobial against Pseudomonas aeruginosa 3894 by broth dilution method
[21] = system: Pseudomonas aeruginosa; test: Antimicrobial against Pseudomonas aeruginosa 1494 harboring phnA allele by broth dilution method
[22] = system: Pseudomonas aeruginosa; test: Antimicrobial against Pseudomonas aeruginosa 40198 harboring nirJ allele by broth dilution method
[23] = system: Pseudomonas aeruginosa; test: Antimicrobial against Pseudomonas aeruginosa 8564 harboring pyrX allele by broth dilution method
[24] = system: Pseudomonas aeruginosa; test: Antimicrobial against Pseudomonas aeruginosa 9256 harboring ybhO allele by broth dilution method
[25] = system: Pseudomonas aeruginosa; test: Antimicrobial against Pseudomonas aeruginosa 8666 by broth dilution method
[26] = system: Pseudomonas aeruginosa; test: Antimicrobial against Pseudomonas aeruginosa 3465 harboring tsaA allele by broth dilution method
[27] = system: Pseudomonas aeruginosa; test: Antimicrobial against Pseudomonas aeruginosa 312 harboring PBPP allele by broth dilution method
[28] = system: Pseudomonas aeruginosa; test: Antimicrobial against Pseudomonas aeruginosa 46396 harboring katA allele by broth dilution method
[29] = system: Pseudomonas aeruginosa; test: Antimicrobial against Pseudomonas aeruginosa PAO1 by broth dilution method
[30] = system: Pseudomonas aeruginosa; test: Antimicrobial against Pseudomonas aeruginosa 33410 harboring phoU allele by broth dilution method

SMILES | MIC [1] | MIC [2] | MIC [3] | MIC [4] | MIC [5] | MIC [16] | MIC [17] | MIC [18] | MIC [19] | MIC [20] | MIC [21] | MIC [22] | MIC [23] | MIC [24] | MIC [25] | MIC [26] | MIC [27] | MIC [28] | MIC [29] | MIC [30] | other results
CC(C)(O/N=C(\C(=O)N[C@@H]1C(=O)N2C(C(=O)[O-])=C(C[n+]3ccccc3)CS[C@H]12)c1csc(N)n1)C(=O)O [CEFTAZIDIME] | 2 µg/mL (≈ 3.66 µM) | 1.5 µg/mL (≈ 2.74 µM) | 3 µg/mL (≈ 5.49 µM) | 2 µg/mL (≈ 3.66 µM) | 2 µg/mL (≈ 3.66 µM) | – | – | – | – | – | – | – | – | – | – | – | – | – | – | – | MIC [6]: 2.5 µg/mL (≈ 4.57 µM); MIC [7]: 2.5 µg/mL (≈ 4.57 µM); MIC [8]: 1.5 µg/mL (≈ 2.74 µM); MIC [9]: 1.5 µg/mL (≈ 2.74 µM); MIC [10]: 1.5 µg/mL (≈ 2.74 µM); MIC [11]: 2 µg/mL (≈ 3.66 µM); MIC [12]: 2 µg/mL (≈ 3.66 µM); MIC [13]: 2 µg/mL (≈ 3.66 µM); MIC [14]: 2 µg/mL (≈ 3.66 µM); MIC [15]: 2 µg/mL (≈ 3.66 µM)
O=C(N[C@H](CO)[C@H](O)c1ccc([N+](=O)[O-])cc1)C(Cl)Cl [CHLORAMPHENICOL] | – | – | – | – | – | 200 µg/mL (≈ 619 µM) | 12.5 µg/mL (≈ 38.7 µM) | 12.5 µg/mL (≈ 38.7 µM) | 25 µg/mL (≈ 77.4 µM) | 12.5 µg/mL (≈ 38.7 µM) | 12.5 µg/mL (≈ 38.7 µM) | 12.5 µg/mL (≈ 38.7 µM) | 12.5 µg/mL (≈ 38.7 µM) | 12.5 µg/mL (≈ 38.7 µM) | 12.5 µg/mL (≈ 38.7 µM) | 12.5 µg/mL (≈ 38.7 µM) | 12.5 µg/mL (≈ 38.7 µM) | 12.5 µg/mL (≈ 38.7 µM) | 800 µg/mL (≈ 2480 µM) | 12.5 µg/mL (≈ 38.7 µM) | –
O=C(O)c1cn(C2CC2)c2cc(N3CCNCC3)c(F)cc2c1=O [CIPROFLOXACIN] | – | – | – | – | – | 0.2 µg/mL (≈ 0.604 µM) | 0.1 µg/mL (≈ 0.302 µM) | 0.1 µg/mL (≈ 0.302 µM) | 0.05 µg/mL (≈ 0.151 µM) | 0.05 µg/mL (≈ 0.151 µM) | 0.1 µg/mL (≈ 0.302 µM) | 0.1 µg/mL (≈ 0.302 µM) | 0.1 µg/mL (≈ 0.302 µM) | 0.1 µg/mL (≈ 0.302 µM) | 0.1 µg/mL (≈ 0.302 µM) | 0.1 µg/mL (≈ 0.302 µM) | 0.1 µg/mL (≈ 0.302 µM) | 0.1 µg/mL (≈ 0.302 µM) | 0.8 µg/mL (≈ 2.41 µM) | 0.05 µg/mL (≈ 0.151 µM) | –
C[C@@H](O)[C@H]1C(=O)N2C(C(=O)O)=C(S[C@@H]3CN[C@H](C(=O)N(C)C)C3)[C@H](C)[C@H]12 [MEROPENEM] | 0.38 µg/mL (≈ 0.991 µM) | 0.38 µg/mL (≈ 0.991 µM) | 0.5 µg/mL (≈ 1.3 µM) | 0.25 µg/mL (≈ 0.652 µM) | 0.38 µg/mL (≈ 0.991 µM) | – | – | – | – | – | – | – | – | – | – | – | – | – | – | – | MIC [6]: 0.38 µg/mL (≈ 0.991 µM); MIC [7]: 0.19 µg/mL (≈ 0.495 µM); MIC [8]: 0.38 µg/mL (≈ 0.991 µM); MIC [9]: 0.25 µg/mL (≈ 0.652 µM); MIC [10]: 0.38 µg/mL (≈ 0.991 µM); MIC [11]: 0.25 µg/mL (≈ 0.652 µM); MIC [12]: 0.25 µg/mL (≈ 0.652 µM); MIC [13]: 0.25 µg/mL (≈ 0.652 µM); MIC [14]: 0.25 µg/mL (≈ 0.652 µM); MIC [15]: 0.25 µg/mL (≈ 0.652 µM)
CCn1cc(C(=O)O)c(=O)c2cc3c(cc21)OCO3 [OXOLINIC ACID] | – | – | – | – | – | 16 µg/mL (≈ 61.2 µM) | 4 µg/mL (≈ 15.3 µM) | 4 µg/mL (≈ 15.3 µM) | 4 µg/mL (≈ 15.3 µM) | 8 µg/mL (≈ 30.6 µM) | 8 µg/mL (≈ 30.6 µM) | 8 µg/mL (≈ 30.6 µM) | 8 µg/mL (≈ 30.6 µM) | 8 µg/mL (≈ 30.6 µM) | 8 µg/mL (≈ 30.6 µM) | 4 µg/mL (≈ 15.3 µM) | 8 µg/mL (≈ 30.6 µM) | 8 µg/mL (≈ 30.6 µM) | 64 µg/mL (≈ 245 µM) | 4 µg/mL (≈ 15.3 µM) | –
NC[C@H]1O[C@H](O[C@H]2[C@H](O)[C@@H](O[C@H]3O[C@H](CO)[C@@H](O)[C@H](N)[C@H]3O)[C@H](N)C[C@@H]2N)[C@H](N)C[C@@H]1O [TOBRAMYCIN] | – | – | – | – | – | 0.4 µg/mL (≈ 0.856 µM) | 0.4 µg/mL (≈ 0.856 µM) | 0.2 µg/mL (≈ 0.428 µM) | 0.4 µg/mL (≈ 0.856 µM) | 0.4 µg/mL (≈ 0.856 µM) | 0.4 µg/mL (≈ 0.856 µM) | 0.4 µg/mL (≈ 0.856 µM) | 0.2 µg/mL (≈ 0.428 µM) | 0.4 µg/mL (≈ 0.856 µM) | 0.2 µg/mL (≈ 0.428 µM) | 0.2 µg/mL (≈ 0.428 µM) | 0.2 µg/mL (≈ 0.428 µM) | 0.2 µg/mL (≈ 0.428 µM) | 0.2 µg/mL (≈ 0.428 µM) | 0.4 µg/mL (≈ 0.856 µM) | –
